Drawing on patent publication US20240174690A1, “ANNULATED 2-AMINO-3-CYANO THIOPHENES AND DERIVATIVES FOR THE TREATMENT OF CANCER” (BOEHRINGER INGELHEIM INTERNATIONAL GMBH, priority 2021, published 2024), this text covers IC50 for 18 compounds.

One assay deals with KRAS (G12V)::SOS1 (Homo sapiens (Human), UniProt P01116, C118S/G12V). Nature of the assay: KRAS::SOS1 AlphaScreen binding assay, KRAS G12V. The method, boiled down:
(§1)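 AlphaScreen measurement of compound disruption of biotinylated, GDP-loaded KRAS 1-169 (10 nM; G12C 7.5 nM) binding to GST-SOS1 564-1049 (5 nM with G12D/G12C, 10 nM otherwise), with 10 μM GDP in PBS/0.1% BSA/0.05% Tween 20. Timing was 30 min compound preincubation, then 60 min with beads at room temperature; top concentration 100 μM, 4-parameter IC50.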
A general note: In Alpha technology, singlet oxygen from a donor bead excites a nearby acceptor bead.

A further assay concerns the target KRAS (G13D)::SOS1 (Homo sapiens (Human), UniProt P01116, C118S/G13D). Put plainly: KRAS::SOS1 AlphaScreen binding assay, KRAS G13D. The method, boiled down:
as §1

The subject of a further assay is A375 cells. Put plainly: A375 CTG proliferation assay (120 h) (melanoma, wt, B-Raf mutant, negative control). Format: cell-based. The following applies: Homo sapiens, A-375, CTG 120 h. In short, it runs like this:
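Cells seeded at 300/well in DMEM + 10% FCS, dosed next day with a logarithmic dilution series and incubated 120 h at 37 °C. Viability read by CellTiter-Glo luminescence as percent of DMSO control; IC50 from four-parameter nonlinear regression.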

Chain of KRAS (G12V)::SOS1 (P01116 other isoform, or with tags, fused parts or gaps G12V/C118S): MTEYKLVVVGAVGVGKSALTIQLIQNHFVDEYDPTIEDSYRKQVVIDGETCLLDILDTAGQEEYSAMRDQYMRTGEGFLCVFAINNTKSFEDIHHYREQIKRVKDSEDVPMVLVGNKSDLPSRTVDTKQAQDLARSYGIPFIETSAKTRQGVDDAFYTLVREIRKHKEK
Chain of KRAS (G13D)::SOS1 (P01116 other isoform, or with tags, fused parts or gaps G13D/C118S): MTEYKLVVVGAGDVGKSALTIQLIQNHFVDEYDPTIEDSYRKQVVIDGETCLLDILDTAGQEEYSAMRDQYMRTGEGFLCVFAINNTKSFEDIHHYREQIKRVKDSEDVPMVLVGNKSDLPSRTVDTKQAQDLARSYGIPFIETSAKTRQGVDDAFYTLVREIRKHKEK

For the compound `C[C@H](Oc1cc(N2CCN(C)C3(COC3)C2)nc(-c2noc3c2CCC[C@@]32CCCc3sc(N)c(C#N)c32)n1)[C@@H]1CCCN1C` [II-13], the IC50 came to 3 nM on KRAS (G12V)::SOS1 and 8 nM on KRAS (G13D)::SOS1.
Consider `C[C@H](Oc1cc(N2CCNC3(CC3)C2)nc(-c2onc3c2CCC[C@@]32CCCc3sc(N)c(C#N)c32)n1)[C@@H]1C[C@@H](F)CN1C` [I-45], for which the IC50 at KRAS (G12V)::SOS1 amounted to 8 nM.
For the compound `C[C@H](Oc1cc(-n2ccc(C(=O)N3CCCC3)n2)nc(-c2noc3c2CCC[C@@]32CCCc3sc(N)c(C#N)c32)n1)[C@@H]1CCCN1C` [II-19], the IC50 on KRAS (G13D)::SOS1 worked out at 9 nM; in the assay on A375 cells, 1120 nM.
Turning to `C[C@H](Oc1cc(N2C[C@H](C)N(C)[C@@H](C)C2)nc(-c2onc3c2CCC[C@@]32CCCc3sc(N)c(C#N)c32)n1)[C@@H]1CCCN1C` [I-43], the IC50 at KRAS (G12V)::SOS1 amounted to 8 nM.
As for `C[C@H](Oc1cc(-n2ccc(C(=O)NC3COC3)n2)nc(-c2noc3c2CCC[C@@]32CCCc3sc(N)c(C#N)c32)n1)[C@@H]1CCCN1C` [II-25], the IC50 amounted to 7 nM on KRAS (G12V)::SOS1 and 11 nM at KRAS (G13D)::SOS1.
Regarding `C[C@H](Oc1cc(-n2ccc(C(N)=O)n2)nc(-c2noc3c2CCC[C@@]32CCCc3sc(N)c(C#N)c32)n1)[C@@H]1CCCN1C` [II-21], the IC50 at KRAS (G12V)::SOS1 was 1 nM; on KRAS (G13D)::SOS1 it was 12 nM; in the assay on A375 cells, > 3000 nM.
Consider `C[C@H](Oc1cc(N2CC3CCC(C2)N3)nc(-c2noc3c2CCC[C@@]32CCCc3sc(N)c(C#N)c32)n1)[C@@H]1CCCN1C` [II-34], for which the IC50 at KRAS (G12V)::SOS1 was 17 nM; on KRAS (G13D)::SOS1 it was 38 nM.
At KRAS (G12V)::SOS1, `C[C@H](Oc1cc(-c2ccn([C@H]3CCCOC3)n2)nc(-c2noc3c2CCC[C@@]32CCCc3sc(N)c(C#N)c32)n1)[C@@H]1CCCN1C` [II-42] registered an IC50 of 2 nM.
Take `C[C@H](Oc1cc(-c2cnn(C)n2)nc(-c2noc3c2CCC[C@@]32CCCc3sc(N)c(C#N)c32)n1)[C@@H]1C[C@@H](F)CN1C` [II-28]: at KRAS (G12V)::SOS1, the IC50 turned out to be 12 nM.
As for `C[C@H](Oc1cc([C@@H]2CCOC2)nc(-c2onc3c2CCC[C@@]32CCCc3sc(N)c(C#N)c32)n1)[C@@H]1CCCN1C` [I-22], the IC50 in the assay with A375 cells is > 3000 nM.
For the compound `Cc1ccc(-c2cc(O[C@@H](C)[C@@H]3CCCN3C)nc(-c3onc4c3CCC[C@@]43CCCc4sc(N)c(C#N)c43)n2)cn1` [I-28], the IC50 at KRAS (G12V)::SOS1 came out at 3 nM.
For `C[C@H](Oc1cc(N2CCNC3(COC3)C2)nc(-c2onc3c2CCC[C@@]32CCCc3sc(N)c(C#N)c32)n1)[C@@H]1CCCN1C` [I-4], the IC50 at KRAS (G12V)::SOS1 was determined as 8 nM; at KRAS (G13D)::SOS1, 20 nM.
In the case of `C[C@H](Oc1cc(N2CCNC3(COC3)C2)nc(-c2noc3c2CCC[C@@]32CCCc3sc(N)c(C#N)c32)n1)[C@@H]1CCCN1C` [II-31], the IC50 at KRAS (G13D)::SOS1 worked out at 8 nM.
`C[C@H](Oc1cc(-n2ccc(C(=O)NC3(C)COC3)n2)nc(-c2noc3c2CCC[C@@]32CCCc3sc(N)c(C#N)c32)n1)[C@@H]1CCCN1C` [II-26]: the IC50 stood at 2 nM on KRAS (G12V)::SOS1 and 8 nM at KRAS (G13D)::SOS1.
Regarding `C[C@H](Oc1cc(-c2ccn(C)n2)nc(-c2noc3c2CCC[C@@]32CCCc3sc(N)c(C#N)c32)n1)[C@@H]1C[C@@H](F)CN1C` [II-27], the IC50 in the assay with A375 cells was > 3000 nM.
In the case of `C[C@H](Oc1cc(N2CC[C@H](N(C)C)C2)nc(-c2noc3c2CCC[C@@]32CCCc3sc(N)c(C#N)c32)n1)[C@@H]1C[C@@H](F)CN1C` [II-15], the 50% inhibitory concentration (IC50) at KRAS (G12V)::SOS1 is 39 nM; on KRAS (G13D)::SOS1, 71 nM.
In the case of `C[C@H](Oc1cc(N2CCN(C)C3(CC3)C2)nc(-c2onc3c2CCC[C@@]32CCCc3sc(N)c(C#N)c32)n1)[C@@H]1C[C@@H](F)CN1C` [I-39], at KRAS (G13D)::SOS1, the IC50 was determined as 146 nM.
For `CNC(=O)c1ccn(-c2cc(O[C@@H](C)[C@@H]3CCCN3C)nc(-c3noc4c3CCC[C@@]43CCCc4sc(N)c(C#N)c43)n2)n1` [II-20], the IC50 is 2 nM at KRAS (G12V)::SOS1 and > 3000 nM in the assay on A375 cells.

In general, IC50 refers to the concentration that gives 50% inhibition. A higher IC50 goes with weaker potency in that assay.
